Columns and labels:
Prolyl endopeptidase = target: T1, Prolyl endopeptidase (Homo sapiens, UniProt P48147); assay: Inhibition of POP (unknown origin) using (Z)-Gly-Pro-p-nitroanilide as substrate preincubated for 5 mins followed by substrate addition and measured after 30 mins by spectrophotometric method
T1 sequence (P48147 whole entry): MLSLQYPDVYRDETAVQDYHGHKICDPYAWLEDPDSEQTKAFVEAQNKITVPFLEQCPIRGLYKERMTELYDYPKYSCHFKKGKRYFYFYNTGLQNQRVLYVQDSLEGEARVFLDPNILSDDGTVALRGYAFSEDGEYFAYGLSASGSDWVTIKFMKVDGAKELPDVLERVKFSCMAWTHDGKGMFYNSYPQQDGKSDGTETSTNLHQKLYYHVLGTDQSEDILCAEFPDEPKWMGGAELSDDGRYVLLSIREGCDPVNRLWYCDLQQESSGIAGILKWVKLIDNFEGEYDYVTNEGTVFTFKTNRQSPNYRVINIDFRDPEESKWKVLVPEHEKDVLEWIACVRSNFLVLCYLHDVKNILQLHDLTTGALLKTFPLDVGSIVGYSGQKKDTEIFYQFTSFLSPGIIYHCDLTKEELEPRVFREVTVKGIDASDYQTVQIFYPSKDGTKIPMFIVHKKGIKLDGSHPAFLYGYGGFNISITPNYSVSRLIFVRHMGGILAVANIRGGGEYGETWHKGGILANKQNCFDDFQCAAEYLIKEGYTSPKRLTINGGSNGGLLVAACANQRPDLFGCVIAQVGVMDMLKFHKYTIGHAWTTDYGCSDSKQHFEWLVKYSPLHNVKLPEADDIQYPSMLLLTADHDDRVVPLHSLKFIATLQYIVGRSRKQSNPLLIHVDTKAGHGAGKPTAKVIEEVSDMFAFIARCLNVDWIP

Homo sapiens = organism: Homo sapiens; assay: Selectivity index, ratio of IC50 for human BuChE to IC50 for human AChE
Cholinesterase [1] = target: T2, Cholinesterase (Homo sapiens, UniProt P06276); assay: Inhibition of human BuChE using butyrylthiocholine iodide as substrate measured for 1 min by Ellman's method
Acetylcholinesterase = Acetylcholinesterase (Homo sapiens, UniProt P22303)
Description: Inhibition of human AChE using acetylthiocholine iodide as substrate measured for 1 min by Ellman's method

[2] = Permeability of the compound after 2.45 hrs by PAMPA; type: ADME; conditions: read-out: permeability
Cholinesterase [3] = target: T2, Cholinesterase; assay: Mixed-type inhibition of human BuChE assessed as enzyme-inhibitor complex using butyrylthiocholine iodide as substrate by Lineweaver-Burk plot analysis
[4] = target: Glycogen synthase kinase-3 beta (Homo sapiens) (UniProt P49841); assay: Inhibition of GSK3B (unknown origin) at 10 uM relative to control
Cholinesterase [5] = target: T2, Cholinesterase; assay: Mixed-type inhibition of human BuChE assessed as enzyme-substrate-inhibitor complex using butyrylthiocholine iodide as substrate by Lineweaver-Burk plot analysis

Acetylcholinesterase, sequence (P22303 whole entry): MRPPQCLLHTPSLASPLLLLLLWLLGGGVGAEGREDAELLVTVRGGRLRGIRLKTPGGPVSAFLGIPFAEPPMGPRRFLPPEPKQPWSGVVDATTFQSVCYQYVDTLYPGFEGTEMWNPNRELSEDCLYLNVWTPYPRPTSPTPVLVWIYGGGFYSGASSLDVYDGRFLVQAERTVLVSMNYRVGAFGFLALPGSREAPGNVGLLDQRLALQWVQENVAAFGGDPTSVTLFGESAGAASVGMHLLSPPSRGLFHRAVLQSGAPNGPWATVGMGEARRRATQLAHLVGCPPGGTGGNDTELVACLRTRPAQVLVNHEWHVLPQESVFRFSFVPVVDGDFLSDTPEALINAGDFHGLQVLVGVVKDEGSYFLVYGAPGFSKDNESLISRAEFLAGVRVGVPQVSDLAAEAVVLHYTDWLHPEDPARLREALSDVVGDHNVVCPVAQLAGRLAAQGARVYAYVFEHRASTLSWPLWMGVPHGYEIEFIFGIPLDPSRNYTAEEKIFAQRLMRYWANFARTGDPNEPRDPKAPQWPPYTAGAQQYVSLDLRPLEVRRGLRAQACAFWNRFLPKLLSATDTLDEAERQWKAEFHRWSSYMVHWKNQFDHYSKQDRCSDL
T2 sequence (P06276 whole entry): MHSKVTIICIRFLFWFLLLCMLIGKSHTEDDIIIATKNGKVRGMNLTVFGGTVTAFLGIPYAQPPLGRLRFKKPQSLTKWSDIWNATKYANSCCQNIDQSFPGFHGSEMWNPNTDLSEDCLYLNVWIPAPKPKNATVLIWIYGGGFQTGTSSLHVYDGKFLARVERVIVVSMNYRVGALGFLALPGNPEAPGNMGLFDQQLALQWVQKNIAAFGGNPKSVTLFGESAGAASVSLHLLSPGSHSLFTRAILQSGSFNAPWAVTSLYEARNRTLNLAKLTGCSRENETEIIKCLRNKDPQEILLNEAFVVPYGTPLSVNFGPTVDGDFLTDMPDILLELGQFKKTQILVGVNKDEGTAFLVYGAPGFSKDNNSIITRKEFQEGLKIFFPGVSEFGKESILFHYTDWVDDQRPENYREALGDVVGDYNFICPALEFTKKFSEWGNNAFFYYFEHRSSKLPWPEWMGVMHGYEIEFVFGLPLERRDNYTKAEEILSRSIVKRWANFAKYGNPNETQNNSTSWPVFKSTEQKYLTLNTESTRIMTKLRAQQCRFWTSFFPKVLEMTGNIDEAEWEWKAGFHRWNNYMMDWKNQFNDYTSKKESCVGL
Glycogen synthase kinase-3 beta (Homo sapiens), sequence (P49841 whole entry, looked up): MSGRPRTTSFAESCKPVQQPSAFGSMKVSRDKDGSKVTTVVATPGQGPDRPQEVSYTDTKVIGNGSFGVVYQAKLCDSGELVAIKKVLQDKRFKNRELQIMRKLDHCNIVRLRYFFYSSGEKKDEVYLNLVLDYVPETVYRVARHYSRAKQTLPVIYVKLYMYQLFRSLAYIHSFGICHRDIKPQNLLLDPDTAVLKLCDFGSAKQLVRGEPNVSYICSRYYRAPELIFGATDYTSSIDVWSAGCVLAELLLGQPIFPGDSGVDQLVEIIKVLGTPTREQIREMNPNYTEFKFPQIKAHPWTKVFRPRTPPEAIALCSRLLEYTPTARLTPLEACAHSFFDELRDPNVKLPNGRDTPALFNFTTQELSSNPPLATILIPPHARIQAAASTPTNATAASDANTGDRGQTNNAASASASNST

## COc1ccc2cc3n(c(=O)c2c1OC)CCc1cc2c(cc1-3)OCO2 [OXYBERBERINE]
Prolyl endopeptidase
  IC50: > 200 µM
Homo sapiens
  Ratio IC50: 1.1
Cholinesterase [1]
  IC50: 68 µM
Acetylcholinesterase
  IC50: > 100 µM

## COc1cc2c3cc1Oc1c(OC)c(OC)cc4c1[C@@H](Cc1ccc(O)c(c1)Oc1ccc(cc1)C[C@@H]3N(C)CC2)N(C)CC4 [BERBAMINE]
Prolyl endopeptidase
  IC50: > 200 µM
Homo sapiens
  Ratio IC50: 0.4
Cholinesterase [1]
  IC50: > 100 µM
Acetylcholinesterase
  IC50: > 100 µM

## CCN(CC)Cc1cc2cc(c1O)Oc1ccc(cc1)C[C@H]1c3cc(c(OC)cc3CCN1C)Oc1c(OC)c(OC)cc3c1[C@@H](C2)N(C)CC3
Cholinesterase [1]
  IC50: > 100 µM
Acetylcholinesterase
  IC50: 68 µM

## COc1cc2c(cc1Oc1c3c(cc(OC)c1OC)CCN(C)C3)C(Cc1ccc(O)cc1)N(C)CC2 (stereo not given)
Prolyl endopeptidase
  IC50: > 200 µM
Homo sapiens
  Ratio IC50: 0.2
Cholinesterase [1]
  IC50: 68 µM
Acetylcholinesterase
  IC50: > 100 µM

## COc1cc2c(cc1O)C(Cc1ccc(O)c(Oc3cc(CC4c5cc(O)c(OC)cc5CCN4C)ccc3OC)c1)N(C)CC2 (stereo not given)
Homo sapiens
  Ratio IC50: 0.1
Cholinesterase [1]
  IC50: 6.9 µM
Acetylcholinesterase
  IC50: 66 µM

## COc1ccc2c3c1O[C@H]1C[C@@H](O)C=C[C@@]31CCN(C)C2 [GALANTAMINE]
Prolyl endopeptidase
  IC50: > 200 µM

## C/C=C1\[C@H]2C=C(C)C[C@]1(N)c1ccc(=O)[nH]c1C2 [HUPERZINE A]
Cholinesterase [1]
  IC50: > 100 µM

## COc1cc2c(cc1OC)-c1cc3ccc(OC)c(OC)c3c[n+]1CC2 [PALMITINE]
Prolyl endopeptidase
  IC50: > 200 µM
Homo sapiens
  Ratio IC50: 86
Cholinesterase [1]
  IC50: > 100 µM

## COc1ccc2cc3[n+](cc2c1OC)CCc1cc2c(cc1-3)OCO2 [BERBERINE]
[2]
  Papp at 2.45 h: 0.1 ×10⁻⁶ cm/s

## COc1cc2c3cc1Oc1c(O)c(OC)cc4c1[C@@H](Cc1ccc(O)c(c1)Oc1ccc(cc1)C[C@@H]3N(C)CC2)N(C)CC4 [OBAMEGINE]
Prolyl endopeptidase
  IC50: > 200 µM
Homo sapiens
  Ratio IC50: 1.5
Cholinesterase [1]
  IC50: > 100 µM
Acetylcholinesterase
  IC50: 97 µM

## COc1cc2c3cc1Oc1c(O)c(OC)cc4c1[C@H](Cc1ccc(cc1)Oc1cc(ccc1O)C[C@H]3N(C)CC2)N(C)CC4
Prolyl endopeptidase
  IC50: 189 µM
Homo sapiens
  Ratio IC50: 0.008
Cholinesterase [1]
  IC50: 0.8 µM
[2]
  Papp at 2.45 h: 1.8 ×10⁻⁶ cm/s
Cholinesterase [3]
  Ki: 6.41 µM
Acetylcholinesterase
  IC50: > 100 µM
[4]
  inhibition: 10%
Cholinesterase [5]
  Ki: 39.7 µM

Reference: ChEMBL document CHEMBL4330159, “Isoquinoline Alkaloids from Berberis vulgaris as Potential Lead Compounds for the Treatment of Alzheimer's Disease” (J Nat Prod, 2019)
